PMC6274048, “Chemical Constituents of Malaysian U. cordata var. ferruginea and Their in Vitro α-Glucosidase Inhibitory Activities” (Molecules, 2016)
Like-named read-outs stand apart in the source and are kept apart here.

Target: α-glucosidase enzyme (type 1 from Baker's yeast) (Saccharomyces cerevisiae, UniProt P53341)
Assay: α-Glucosidase inhibitory assay (p-nitrophenyl-α-D-glucopyranoside substrate, absorbance at 405 nm)
Type: biochemical
Settings: for inhibition at 1000 µg/mL: Concentration: 1 mg/mL, Means ± SD, n = 3; for IC50: α-glucosidase inhibition
Description: The method of α-glucosidase inhibitory assay was adopted from Ahmad et al. with minor modification. The plant samples (extract/fraction/compound) were prepared in 5% DMSO at a concentration of 1000 μg/mL. A series of dilutions for each sample were prepared to give concentrations of 1000, 500, 250, 125, 62.5 and 31.25 μg/mL. Then, about 10 μL of sample, 20 μL of α-glucosidase enzyme solution (type 1 from Baker’s yeast), phosphate buffer saline (40 μL at pH 6.5) and deionized water (20 μL) were mixed in a 96-well plate. The mixture was incubated at 37 °C. After 10 min, 10 μL of 20 mM p-nitrophenyl-α-D-glucopyranoside solution was added into the mixture and absorbance at time 0 min was measured by the spectrophotometer (λ = 405 nm). Then, the reaction mixture was incubated at 37 °C for 30 min and the absorbance was measured. […] Experiments were performed in triplicates with three independent experiments. The percentage inhibitory activity was calculated using the following equation: (1) Inhibition (%)=(A30 min–A0 min) control – (A30 min – A0 min) sample × 100/(A30 min–A0 min) control where A is the absorbance of mixture measured at 405 nm.

Sequence of α-glucosidase enzyme (type 1 from Baker's yeast) (P53341 whole entry): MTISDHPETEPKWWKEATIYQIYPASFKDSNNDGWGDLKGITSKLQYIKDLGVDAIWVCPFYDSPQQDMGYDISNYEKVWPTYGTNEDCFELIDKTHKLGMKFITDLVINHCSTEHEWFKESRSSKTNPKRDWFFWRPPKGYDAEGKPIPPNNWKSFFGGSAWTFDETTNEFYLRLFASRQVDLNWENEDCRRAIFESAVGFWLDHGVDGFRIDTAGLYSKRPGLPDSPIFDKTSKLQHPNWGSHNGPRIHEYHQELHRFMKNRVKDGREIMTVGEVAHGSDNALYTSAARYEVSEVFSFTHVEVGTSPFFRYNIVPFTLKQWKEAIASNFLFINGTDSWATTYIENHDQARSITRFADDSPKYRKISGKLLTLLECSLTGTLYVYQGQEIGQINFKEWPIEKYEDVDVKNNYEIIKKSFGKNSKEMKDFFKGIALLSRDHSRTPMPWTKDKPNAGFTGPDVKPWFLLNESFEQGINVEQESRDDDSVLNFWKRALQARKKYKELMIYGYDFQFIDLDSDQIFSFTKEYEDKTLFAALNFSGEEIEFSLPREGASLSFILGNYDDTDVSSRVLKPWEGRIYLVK

COC(=O)C1=CO[C@@H](O[C@@H]2O[C@H](CO)[C@@H](O)[C@H](O)[C@H]2O)[C@@H]2[C@@H](C)[C@@H](O)C[C@H]12 [Loganin]
inhibition at 1000 µg/mL: 44.9 ± 0.7%

O=C(O)c1ccc(O)cc1O [2,4-DHBA, 2,4-Dihydroxybenzoic acid]
inhibition at 1000 µg/mL: 78.8 ± 0.4% | IC50 (dilution series 1000-31.25 μg/mL, read-out: IC50 (μg/mL) (converted)): 3.56 mM | IC50 (same IC50 in molar units, read-out: IC50): 3.56 mM

COc1cc2ccc(=O)oc2cc1O [Scopoletin]
inhibition at 1000 µg/mL: 34.5 ± 0.4%

C[C@H]1O[C@H](O[C@H]2[C@H](O)[C@@H](O)[C@@H](O[C@H]3[C@H](O)[C@@H](O)C(O)O[C@@H]3CO)O[C@@H]2CO)[C@H](O)[C@@H](O)[C@@H]1N[C@H]1C=C(CO)[C@@H](O)[C@H](O)[C@H]1O (stereo partly shown) [Acarbose, reference compound]
inhibition at 1000 µg/mL: 90.9 ± 2.7%

O=c1c(O)c(-c2ccc(O)c(O)c2)oc2cc(O)cc(O)c12 [Quercetin]
inhibition at 1000 µg/mL: 84.5 ± 0.6%
